Measured values reported in ChEMBL document CHEMBL1122369, “Autoxidation of the antitumor drug 9-hydroxyellipticine and its derivatives” (1983).

System: L1210
Assay: Growth inhibitory activity against L1210 lymphocytic leukemia cells.
Assay type: functional
Details: Mus musculus, read-out: ID50 (the source's name)

Structure (SMILES)	IC50 [nM]
Cc1c2ccncc2c(C)c2c1[nH]c1ccc(O)cc12	15
Cc1c2ccncc2c(C)c2c1[nH]c1c(O)cccc12	5440
Cc1c2c[n+](C)ccc2c(C)c2c1c1cc(O)ccc1n2C	41
Cc1c2ccncc2c(C)c2c1[nH]c1ccccc12 [ELLIPTECINE]	990
Cc1c2cc[n+](C)cc2c(C)c2c1[nH]c1ccc(O)cc12 [ELLIPTINIUM]	50
